Data set [1] relates to CHO-SPAP cells. The experiment in a line: CRE-SPAP gene transcription in parent CHO-SPAP cells (without the H3 receptor). It is filed as cell-based, Chinese hamster. As to conditions: Cricetulus griseus, CHO-SPAP cells (without the receptor), read-out: pIC50, CRE-SPAP, low potency component (converted). The procedure:
The response to all ligand used in this study was examined in the parent CHO-SPAP cells (expressing the reporter but not the human H3 receptor). Full 7-point concentration response curves were constructed, in the presence and absence of 4 μM forskolin. […].

Data set [2] has as its system CHO-H3-SPAP cells. The experiment in a line: Trypan blue uptake in CHO-H3-SPAP cells. Conditions: 5 hours incubation.
The target of data set [3] is T1, human histamine H3 receptor (Homo sapiens, UniProt Q9Y5N1). The experiment in a line: CRE-SPAP gene transcription in forskolin-stimulated CHO-H3-SPAP cells. Conditions: for pKD values / Schild slope: CRE-SPAP; for Schild slope: 3 antagonist concentrations.
Description: (§1) The transfected cells were selected for neomycin resistance (1 mg/ml; for H3 receptor) and hygromycin resistance (200 μg/ml; for CRE-SPAP reporter gene) for 3 weeks and passaged twice during in this period. A single clone was then isolated by dilution cloning to give a clonal line (CHO-H3-SPAP cells). The parent cell CRE-SPAP was also used for control experiments (CHO-SPAP cells).
(§2) Cells were grown to confluence in 96-well tissue culture plates. The cells were then serum starved by removing the media and replacing it with 100 μl serum free media (DMEM/F12 containing 2 mM L-glutamine). […] Where used, pertussis toxin, at a final concentration of 100 ng/ml was added to the serum-free media and thus incubated with the cells for 24 hours. On the day of experimentation, the serum-free media was removed and replaced with 100 μl serum-free media or 100 μl serum-free media containing an antagonist at the final required concentration and the cells incubated for 1 hour. Agonist in 10 μl (diluted in serum free media) was then added to each well and the cells incubated for 10 minutes. Forskolin was then added to all but the basal wells to give a final well concentration of 4 μM and the plates incubated for 5 hours. After 5 hours, the media and all drugs were removed. […] The plates were then incubated at 65°C for 30 minutes to destroy any endogenous phosphatases. After cooling to 37°C, 100 μl 5 mM pNPP in diethanolamine buffer was added to each well and the plates incubated at 37°C in a normal atmosphere until the yellow colour developed.
(§3) Sigmoidal concentration-response curves were fitted to the data using Graphpad Prism 2 and the following equation:
(§4) Antagonist KD values were then calculated from the shift of the agonist concentration responses in the presence of a fixed concentration of antagonist using the following equation:
(§5) where DR (dose ratio) is the ratio of the agonist concentration required to stimulate an identical response in the presence and absence of a fixed concentration of antagonist [B].
(§6) In experiments where three different fixed concentrations of the same antagonist were used, Schild plots were constructed using the following equation:
Log (DR-1) = log [B] - log (KD)
(§7) These points were then fitted to a straight line.
(§8) Partial agonist dissociation constants were therefore estimated according to the method of Stephenson [35] using the following equation:
(§9) KD partial agonist=X.[P]/1−Xwhere X=[A2]−[A1]/[A3]
The target of data set [4] is T1, human histamine H3 receptor. As to the kind of experiment: 3H-cAMP accumulation in forskolin-stimulated CHO-H3-SPAP cells. Set-up: secondarily transfected with the full length human histamine H3 receptor; host or cells: CHO-K1 cells with CRE-SPAP reporter (clonal line CHO-H3-SPAP). It is filed as cell-based. The procedure:
Cells were grown to confluence in 24-well plates. The media was removed and the cells pre-labelled with ^3H-adenine by incubation with 2 μCi/ml ^3H-adenine in serum-free media (0.5 ml per well) for 3 hours. The ^3H-adenine was then removed and the cells washed by the addition then removal of 1 ml serum-free media. […] Forskolin (final concentration of 10 μM) was then added to all but the basal wells and the plates incubated for 30 minutes. The reaction was terminated by the addition of 50 μl concentrated HCl per well and the plates were then frozen. Later, the plates were thawed and ^3H-cAMP separated from other ^3H-nucleotides by sequential Dowex and alumina column chromatography, as previously described.
When the intrinsic efficacy of the antagonist ligands was examined, the antagonists were incubated for 5 hours at 37°C in order to maximise the chance of detecting any changes in ^3H-cAMP accumulation.
Response=Emax×[A]/IC50+[A]

Data set [5] shares this target.
Description: as §1, §2, §3, §4, §5, §6
Log (DR-1) = log [B] - log (KD)
as §7, §8, §9

Like-named read-outs stand apart in the source and are kept apart here.

T1 sequence (Q9Y5N1 whole entry): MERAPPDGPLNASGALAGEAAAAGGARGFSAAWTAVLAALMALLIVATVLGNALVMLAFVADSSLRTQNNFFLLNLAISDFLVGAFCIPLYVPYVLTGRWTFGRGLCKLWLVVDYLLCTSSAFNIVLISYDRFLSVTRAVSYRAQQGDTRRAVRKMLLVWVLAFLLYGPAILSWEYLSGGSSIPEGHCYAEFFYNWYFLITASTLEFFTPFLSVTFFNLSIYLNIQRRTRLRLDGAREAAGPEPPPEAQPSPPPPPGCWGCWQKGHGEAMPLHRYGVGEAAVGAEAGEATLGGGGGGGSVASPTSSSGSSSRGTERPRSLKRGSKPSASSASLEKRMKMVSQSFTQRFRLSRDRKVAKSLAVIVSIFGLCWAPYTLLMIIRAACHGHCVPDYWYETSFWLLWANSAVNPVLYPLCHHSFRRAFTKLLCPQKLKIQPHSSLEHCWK

Turning to `NCCCCCc1cnc[nH]1` [impentamine], the IC50 in data set [1] (with forskolin) is 4.68 µM; in data set [1] (without forskolin), 3.89 µM; in data set [3] (pIC50, CRE-SPAP, low potency component, CHO-H3-SPAP cells, absence of forskolin, with PTX pre-incubation) it was 5.13 µM; in data set [3] (pIC50, CRE-SPAP, low potency component, CHO-H3-SPAP cells, absence of forskolin, without PTX pre-incubation), 6.61 µM; in data set [3] (pIC50, CRE-SPAP, second component remaining after PTX, forskolin-stimulated CHO-H3-SPAP cells, 24 hours pre-incubation with PTX), 6.03 µM; in data set [3] (pIC50 Site 1, CRE-SPAP, first component of two-component response, forskolin-stimulated CHO-H3-SPAP cells) it was 0.0257 µM. Moreover, the IC50 in data set [4] (read-out: pIC50, 3H-cAMP accumulation (converted)) is 0.00372 µM. For the same molecule, the “intracellular uptake of trypan blue” value in data set [2] is “did not show any intracellular uptake of trypan blue”. Further, the “agonist character in CRE-SPAP screen” value in data set [3] (inhibition of forskolin-stimulated CRE-SPAP production, CHO-H3-SPAP cells) is “partial agonist actions”. Also, the “pIC50 Site 2, CRE-SPAP” value in data set [3] (second component of two-component response, forskolin-stimulated CHO-H3-SPAP cells) is “Site 2 5.40 ± 0.05”.
Take `c1cc(CN2CCCCC2)cc(OCCCNc2nc3ccccc3s2)c1` [zolatidine]: in data set [5], binding was characterised by a dissociation constant (Kd) of 0.282 µM. Besides, the pKD values was determined as 6.46 ± 0.07 in data set [3] (agonist N-α-methylhistamine); 6.52 ± 0.06 in data set [3] (agonist R-α-methylhistamine); 6.54 ± 0.07 in data set [3] (agonist S-α-methylhistamine); 6.38 ± 0.10 in data set [3] (agonist VUF 8430); 6.51 ± 0.07 in data set [3] (agonist histamine); 6.62 ± 0.08 in data set [3] (agonist imetit). In addition, the results for the pKD values in data set [3] (agonist immethridine), in data set [3] (agonist impentamine (first component of the response)) and in data set [3] (agonist proxyfan) were 6.66 ± 0.05, 6.52 ± 0.10 and 6.78 ± 0.06, respectively. In addition, the Schild slope in data set [3] (agonist N-α-methylhistamine) is listed as 1.10 ± 0.12; in data set [3] (agonist R-α-methylhistamine) it was 1.04 ± 0.04; in data set [3] (agonist S-α-methylhistamine), 1.10 ± 0.07; in data set [3] (agonist histamine), 1.01 ± 0.04; in data set [3] (agonist imetit) it was 1.17 ± 0.05; in data set [3] (agonist immepip), 1.18 ± 0.08. Besides, the Schild slope is 0.96 ± 0.02 in data set [3] (agonist immethridine) and 0.91 ± 0.11 in data set [3] (agonist proxyfan). The “intrinsic activity response in 3H-cAMP accumulation” value in data set [4] (5 hours incubation with ligand, n = 4) is given as “No responses”.

These data come from publication PMC2430196, “Antagonist affinity measurements at the Gi-coupled human histamine H3 receptor expressed in CHO cells” (BMC Pharmacology, 2008).
